From article PMC8875489, “Pharmaceutical and Safety Profile Evaluation of Novel Selenocompounds with Noteworthy Anticancer Activity” (Pharmaceutics, 2022)
Where two headings read alike, the source gives them in different places.

Key:
[1] = system: Salmonella Typhimurium TA100 strain; conditions: for Fold Increase over Baseline / MI (mutagenic index) / B (binomial B value): TA100; for Fold Increase over Baseline: alert ≥ 2.0; for MI (mutagenic index): mutagenic if MI ≥ 2; for B (binomial B value): threshold ≥ 0.99
Protocol: Safety profiles were evaluated using an in vitro microbiological method adapted to the microplate Ames test (384-well microtitration plate), which applies Salmonella enterica serovar Typhimurium bacterial strains (the gold standard in mutagenicity research). The experiment was performed according to a previously described protocol, which is provided in the Supplementary Materials. Briefly, the TA 100 strain (deprived of the ability to synthesize the histidine) was incubated with each tested compound in an exposure medium containing a limited amount of histidine. The reversion events were counted both manually and by means of a microplate reader. Each fold increase bigger than two times the baseline level (≥2.0-fold) was considered to indicate a mutagen alert. The experiments and data analyses were prepared according to the procedure that was previously described by Flückiger-Isler et al.. The assay was performed in triplicate. The positive control selected for the mutagenicity assays was NQNO, which causes genome point mutations; specifically, it promotes G:C → A:T transitions in the Salmonella Typhimurium TA-100 strain and other bacteria such as Vibrio harveyi and Escherichia coli.
In the next step of the studies, the in vitro safety profiles of the tested selenocompounds were evaluated. All compounds were tested with the 384-well plate microfluctuation Ames test. The mutagenic index (MI) was used as the measure of mutagenicity.
1.5. Safety profile evaluation - Ames microplate mutagenicity assay
Safety profile was evaluated by the means of in vitro microbiological methods – adapted to microplate Ames test, which applies Salmonella enterica serovar Typhimurium bacterial strains (the gold standard in mutagenicity research).
1.5.1. Compounds preparation
To evaluate the impact of tested compounds and of references on Salmonella enterica serovar Typhimurium (onwards Salmonella Typhimurium) TA-100 strain growth by means of the Ames test, the compounds or the reference were dissolved in the pure DMSO, to obtain the corresponding 10 mM stock solutions. Working solutions for tested compounds (25 μM and 250 μM concentrations) were prepared before the assay in DMSO.
1.5.2. Microplate Ames mutagenicity assay protocol
Prior to the experiment, Salmonella Typhimurium was cultured overnight (NB-2 liq-uid medium in the presence of 25 μg/mL ampicillin). At the day of the experiment, fresh dilutions of the tested compounds (25 μM and 250 μM), reference compound (methylse-leninic acid) and standard mutagen (4-nitroquinoline-N-oxide at 2.5 μM and 12.5 μM) in DMSO were prepared. The positive control selected for the mutagenicity assays was NQNO, which causes point mutations at the genome. Specifically, it promotes G:C → A:T transitions in Salmonella Typhimurium TA-100 strain and in the other bacteria such as Vib-rio harveyi and Escherichia coli.
The mutagenic potential of the tested derivatives was evaluated by the incubation of the abovementioned bacteria (deprived of the ability to synthesize the histidine) with spe-cific concentrations of the tested compounds (for 90 min in the exposure medium), con-taining a limited amount of histidine (enough to provide approximately 2-3 cell divisions).
The occurrence of reversion events to histidine prototrophy was observed through the bacterial growth in the indicator medium without histidine after 48 h of incubation in temperature of 37° C [45]. The final compound and the mutagenic agent concentrations in each single well of a 384 well plate were 1 μM and 10 μM for the compounds; and 0.1 μM and 0.5 μM for the mutagen. Lastly, both a manual count and a microplate reader were used to obtain the results. The medium control baseline (MCB) was estimated as the mean number of revertants in the medium control plus one standard deviation. Each fold in-crease bigger than two times the baseline level ≥ 2.0 was considered as a mutagen alert.

[2] = parameters: method as in PMID 28245633; conditions: known selenocompounds; cited from earlier work
[3] = PAMPA membrane permeability test (capillary electrophoresis); assay type: in vitro ADME; conditions: for Papp at 5 h, 50 µM: 50 μM in PBS pH 7.4, 5 h, room temperature, read-out: In Vitro Permeability
Protocol: The passive transport and membrane absorption of 5 selected selenocompounds (EDA-58, EDA-71, EDA-119, EDA-122, and EDA-A6) were evaluated with the in vitro parallel artificial membrane permeability assay (PAMPA). This PAMPA assay could provide better predictability and membrane permeability correlations compared to the data obtained for human absorption in the Caco-2 cell line. The Precoated PAMPA Plate System Gentest™ (Corning, Bradford, MA, USA) was used to perform the permeability assay for the 5 selected Se compounds. The protocol of the permeability assay was similar to the previously described ones and is detailed in the Supplementary Materials.
Five selenocompounds (EDA-58, EDA-71, EDA-119, EDA-122, and EDA-A6) were evaluated with the PAMPA in vitro assay using the CE technique.
[formula] Scheme 1 Calculation of the in vitro permeability (cm/s). A (filter area) cm^2 = 0.3; VD (donor well volume) mL = 0.3; VA (acceptor well volume) mL = 0.2; t (incubation time) seconds = 18,000; CA(t) (compound concentration in acceptor well at time t); CD(t) (compound concentration in donor well at time t). […]
(§1) 1.3. PAMPA test: membrane permeability evaluation.
(§2) The passive transport and the membrane absorption of 5 selected selenocompounds (EDA-58, EDA-71, EDA-119, EDA-122, EDA-A6) were evaluated in the in vitro Parallel Artificial Membrane Permeability Assay (PAMPA). The protocol of the permeability assay was similar to the ones previously described.
1.3.1. Stock solutions and sample preparation for PAMPA test
Working solutions of the tested compounds at the concentration of the 50 μM in the phosphate saline buffer (PBS, pH 7.4) were prepared from the stocks in the pure dimethyl sulfoxide (DMSO) and stored at -20° C. Moreover, to draw the precise calibration curves for each tested (EDA-58, EDA-71, EDA-119, EDA-122, EDA-A6) and reference com- […]
The Precoated PAMPA Plate System Gentest™ (Corning, Bradford, MA, USA) was used to perform permeability assay for the 5 selected Se-compounds. The essential part of […]
solvents. PAMPA Plate System was brought to room temperature 30 min before use.
The 96-well filter plate precoated with lipids was used as a permeation acceptor, whereas the 96-well receiver plate acted as the permeation donor plate. Therefore, the compound solutions were added to the wells (300 μL/well) of the receiver plate and PBS was added to wells (200 μL/well) of the precoated filter plate.
Then, the filter plate was coupled with the receiver plate and both were incubated at room temperature for five hours without agitation. […] Fi-nally, the permeability coefficients (Pe, [cm/s]) of the tested compounds were estimated using the formula provided by the PAMPA Plate System manufacturer.
1.3.3. Capillary electrophoresis (CE) analytical method […]
were calculated in both the donor and acceptor compartments using the capillary electro-

[4] = Experimental aqueous solubility (UV spectrophotometry of saturated solutions); assay type: physicochemical; conditions: water (saturated solution), water, thermodynamic from solid
Protocol: Experimental aqueous solubility was determined following a previously described procedure. Briefly, calibration curves were obtained by means of UV spectrometry for each compound, and their respective linear equations were obtained. Afterwards, saturated solutions of each compound were obtained, and they were diluted until the concentration fell within the calibration range, thus enabling the correct concentration interpolation. […] A detailed description of this process can be found in Supplementary Materials.
The aqueous solubility of the tested organic Se compounds was experimentally determined following a previously described procedure. The chosen assay used UV spectrophotometry to estimate the concentration of the saturated solution with known dilutions of the tested compound at room temperature (20° C) after 24 h. The concentrations of the solutions were used to obtain the interpolation of the measured UV absorbance of the saturated solution dilution from the calibration curve drawn using solutions previously prepared in methanol/water mixtures. […]
1.2. Determination of the aqueous solubility
1.2.1. Preparation of the saturated solutions of tested compounds
The saturated solutions (2 mL) of the tested Se-compounds in water were prepared at H2O boiling point in small glass vials. Later, vials were covered to avoid evaporation and all solutions were left 1 day at 20° C, after when every solution was filtered. Finally, the concentration of the Se-compounds was determined through UV spectrophotometric measurements. To estimate correctly the concentration, calibration curves with known concentrations were prepared, and the saturated solutions were diluted till reaching a point within the range of the respective calibration curve.
1.2.2. Preparation of the calibration curve stock solutions for UV spectrometry The stock solutions of 10 selenoesters (EDA-26, EDA-71, EDA-73, EDA-74, EDA-93, […]
were prepared in methanol (99% purity) at a 1 g/L concentration. Additionally, calibration solutions in the range from 0.0005 to 0.02 [g/L] were prepared for each Se-compound and their UV absorbance was determined to draw the corresponding calibration curve.
1.2.3. Sample preparation of saturated filtrates for UV spectrometry
The 100-fold diluted solutions of the saturated filtrates of the Se-compounds were prepared in the anhydrous methanol (99% purity), by addition of 70 μL of the correspond-ing methanol stock solution over anhydrous methanol till filling a 7 mL final volume. Af-terwards, the absorption of abovementioned solutions was determined. Finally, the solu-tions were diluted with 99% methanol from 1 to 160 times, in function of the compound.
The aim of this procedure was to determine the concentration of the Se-compounds […]
through the controlled dilution of the solution with unknown concentration till its UV absorbance fell within the range of the calibration solutions.
1.2.4. Solubility estimation
For each compound, the calibration curve was calculated through the UV absorbance measurements and the linear equation of the linear part of the curve was calculated. The absorbance of the dilution was then interpolated in this range, finding its concentration.
To determine the solubility, this concentration was multiplied by the dilution factor, which was specific for each derivative. This action enabled the estimation of the in vitro solubility of the tested derivatives in saturated solutions. All the solubility values were the average value obtained from the 3 independent measurements.
as §1, §2
1.3.1. Stock solutions and sample preparation for PAMPA test […]

| SMILES | Fold Increase over Baseline ([1]; 1 µM) | MI (mutagenic index) ([1]; 1 µM) | B (binomial B value) ([1]; 1 µM) | Fold Increase over Baseline ([1]; 10 µM) | MI (mutagenic index) ([1]; 10 µM) | B (binomial B value) ([1]; 10 µM) | permeability [2] | other results |
| --- | --- | --- | --- | --- | --- | --- | --- | --- |
| COC(=O)C[Se]C(=O)c1ccccc1Cl [EDA-46, methyl 2-((2-chlorobenzoyl)selanyl)acetate] | 1.65 | 1.56 | 1.00 | 1.00 | 0.94 | 0.88 | – | – |
| COC(=O)C[Se]C(=O)Cc1ccccc1 [EDA-56, methyl 2-((2-phenylacetyl)selanyl)acetate] | 0.93 | 1.46 | 0.88 | 0.90 | 0.85 | 0.75 | – | – |
| COC(=O)C[Se]C(=O)c1ccccc1 [EDA-53, methyl 2-(benzoylselanyl)acetate] | 1.10 | 1.82 | 1.00 | 1.04 | 1.72 | 0.98 | – | mutagenicity conclusion in Ames test ([1]; TA100, 1 and 10 µM): non-mutagenic |
| O=[Se](O)O [selenite] | – | – | – | – | – | – | 3.4% | – |
| COc1cccc2c1C(=O)c1c(O)c3c(c(O)c1C2=O)C[C@@](O)(C(=O)CO)C[C@@H]3O[C@H]1C[C@H](N)[C@H](O)[C@H](C)O1 [DOXO, doxorubicin, reference compound] | 1.31 | 1.64 | 1.00 | 0.77 | 0.95 | 0.46 | – | – |
| CCn1cc(C(=O)O)c(=O)c2cc(F)c(N3CCNCC3)cc21 [Norfloxacin, norfloxacin, reference compound] | – | – | – | – | – | – | – | Papp at 5 h, 50 µM [3]: 0.0949 ×10⁻⁶ cm/s |
| C[Se+](C)C [cationic trimethylselenonium, trimethylselenonium] | – | – | – | – | – | – | 3.0% | – |
| N[C@@H](C[Se][Se]C[C@H](N)C(=O)O)C(=O)O [selenocystine] | – | – | – | – | – | – | 3.1% | – |
| NC(=O)C[Se]C(=O)c1ccccc1 [EDA-117, Se-carbamoylmethyl benzoselenoate] | 0.49 | 0.66 | 0.36 | 0.42 | 0.57 | 0.18 | – | solubility at 24 h ([4]; 20 °C, logSm calculated based on solubility Sm (mol/L), read-out: Experimental Aqueous Solubility logSm (converted)): 4.27 mM; solubility at 24 h ([4]; room temperature (20° C), after 24 h, average of 3, read-out: Experimental Aqueous Solubility): 1030 µg/mL |
| N[C@@H](CC[Se]CC[C@H](N)C(=O)O)C(=O)O [L-selenohomolanthionine] | – | – | – | – | – | – | 2.5% | – |
| C[Se]CC[C@H](N)C(=O)O [selenomethionine] | – | – | – | – | – | – | 12.4% | – |
| C[Se]C1O[C@H](CO)[C@H](O)[C@H](O)[C@H]1NC(C)=O (some centres unmarked) [Se-methylseleno-N-acetylgalactosamine] | – | – | – | – | – | – | 2.9% | – |
| C[Se](=O)O [MetSeAc, methylseleninic acid, reference compound] | 0.75 | 0.90 | 0.37 | 0.74 | 0.96 | 0.47 | – | – |
| Cn1c(=O)c2c(ncn2C)n(C)c1=O [Caffeine, caffeine, reference compound] | – | – | – | – | – | – | – | Papp at 5 h, 50 µM [3]: 3.42 ×10⁻⁶ cm/s; % Perm. (percentage that crossed from the donor well to the acceptor well) ([3]; 5 h): 6.05% |
| C[Se]C[C@H](N)C(=O)O [methylselenocysteine] | – | – | – | – | – | – | 17.2% | – |
| N#C[SeH] [anionic selenocyanate, selenocyanate] | – | – | – | – | – | – | 3.8% | – |
